Data on 8 molecules can be found in publication PMC4426631, “Insect antimicrobial peptides show potentiating functional interactions against Gram-negative bacteria” (Proceedings of the Royal Society B: Biological Sciences, 2015).

Experiment [1] concerns the target T1, E. coli DnaK (Escherichia coli, UniProt P0A6Y8). Description: FRET quenching peptide–protein interaction assay with DnaK–BHQ10. It counts as binding. The note with it: 2 h, n = 3; for Kd not determinable: DnaK–BHQ10 quenching, peptide N-terminal carboxyfluorescein, C-terminal amide; for Kd not determinable / DnaK interaction / binding-curve shape, in words: pH 7.4. The protocol: DnaK, produced by Michael Zahn, was dialysed against modifying buffer (20 mmol l^−1 Na2HPO4, 20 mmol l^−1 KH2PO4, 5 mmol l^−1 MgCl2, 150 mmol l^−1 KCl, pH 7.4) as previously described and 2 mg ml^−1 were labelled with a 10-fold molar excess of BHQ10-NHS-ester, followed by supplementary dialysis to remove excess BHQ10.
As previously described, the fluorescein-modified peptides (50 μl, 1.3 nmol l^−1) and a serial dilution of DnaK–BHQ10 in modification buffer (50 μl, 0.8–13 000 nmol l^−1, 1 : 4 dilution series) were mixed in a black 384-well plate and incubated for 2 h. To calculate the quenching effect, a control was measured in five replicates consisting of 50 μl of peptide solution and 50 μl of modification buffer. The fluorescence intensity was recorded on a Paradigm fluorescence reader using a fluorescence intensity (fluo-rhod) detection cartridge (excitation wavelength = 485 ± 10 nm; emission wavelength = 535 ± 12.5 nm; integration time = 140 ms). The quenching effect was defined as the percentage of the fluorescence intensity of the control quenched after the addition of DnaK–BHQ10. Kd values were determined as described in the electronic supplementary material. […]
i) Peptide synthesis and modification.
The peptide sequences shown in Tabl es S1 an d S4 were selected according to their repo rted […]
(Carmel, USA), respectively. The m ature peptide sequences were based on data from closel y-related species and EST information derived from B. terrestris. Other peptides were s ynthesized b y PANATecs (Tübingen, Germ an y) . All peptides were l yoph ilized for storage, and were resuspended and diluted in double-distilled water, which was used as the zero peptide […]
metchnikowin 1 and 2 (Drosophila melanogaster) peptides were modified by the N -terminal addition of 5(6 )-carbox yfluorescein and C -terminal amidation for the quenching assa y. Bombus pascuorum h ymenoptaecin was modified b y the addition of an N-terminal p yroglutamate. The Black Hole Quencher 10 succinimidyl ester (BHQ10-NHS-ester, >75% purit y) was obtained from BioCat (H eidelber g, German y). […]

The subject of experiment [2] is substrate-binding domain of DnaK. As to conditions: co-crystal structures; ref [58]; cited from earlier work. The source says:
Normally, the characteristic sequence stretch YL/IPRP is positioned in the DnaK substrate-binding cleft, with a leucine or isoleucine residue occupying the central hydrophobic pocket. Additional hydrophobic binding sites preceding the central pocket are occupied by the conserved tyrosine residue and another, preferentially hydrophobic amino acid residue, defined as posi ...

For the next experiment, the system named is E. coli. Also on record: method as in PMID 6396089. The note with it: following treatment with H. cecropia attacin; ref [15]; cited from earlier work.
The target of experiment [3] is T1, E. coli DnaK. The note with it: ref [51]; cited from earlier work.
[4] abbreviates: fluorescein-modified peptide 1.3 nmol l−1, DnaK–BHQ10 0.8–13 000 nmol l−1.

Entries after “also recorded” stand apart in the source; their conditions may differ. Ends that are not written are not given here. Peptide text beside a SMILES is read from it. * marks the point of attachment. 5FAM = O=C1OC2(c3ccc(O)cc3Oc3cc(O)ccc32)c2ccc(C(=O)*)cc21; Cf = 5(6)-carboxyfluorescein

T1 sequence (P0A6Y8 whole entry): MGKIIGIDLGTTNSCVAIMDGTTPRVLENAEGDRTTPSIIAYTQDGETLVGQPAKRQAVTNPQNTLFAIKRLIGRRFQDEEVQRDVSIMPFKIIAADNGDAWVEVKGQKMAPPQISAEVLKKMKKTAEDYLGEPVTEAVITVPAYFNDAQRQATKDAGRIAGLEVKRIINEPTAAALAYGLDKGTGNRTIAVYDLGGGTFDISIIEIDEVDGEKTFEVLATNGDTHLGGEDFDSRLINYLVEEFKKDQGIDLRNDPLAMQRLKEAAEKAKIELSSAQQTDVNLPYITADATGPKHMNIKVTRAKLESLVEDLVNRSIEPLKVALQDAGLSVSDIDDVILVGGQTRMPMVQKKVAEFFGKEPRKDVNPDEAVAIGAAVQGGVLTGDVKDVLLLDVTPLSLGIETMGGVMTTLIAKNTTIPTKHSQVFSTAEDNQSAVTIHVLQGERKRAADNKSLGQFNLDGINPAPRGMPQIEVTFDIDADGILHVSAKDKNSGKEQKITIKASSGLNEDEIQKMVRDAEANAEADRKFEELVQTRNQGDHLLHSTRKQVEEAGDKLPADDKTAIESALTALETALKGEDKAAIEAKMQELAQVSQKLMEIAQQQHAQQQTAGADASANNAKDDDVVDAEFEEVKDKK

Consider `CC[C@H](C)[C@H](NC(=O)[C@H](CCCCN)NC(=O)[C@@H]1CCCN1C(=O)[C@H](CC(N)=O)NC(=O)[C@H](Cc1ccccc1)NC(=O)[C@@H]1CCCN1C(=O)CNC(=O)[C@H](Cc1c[nH]cn1)NC(=O)CNC(=O)[C@@H]1CCCN1C(=O)[C@H](Cc1ccccc1)NC(=O)[C@H](CO)NC(=O)[C@@H]1CCCN1C(=O)[C@H](Cc1ccccc1)NC(=O)[C@@H]1CCCN1C(=O)[C@H](CCCCN)NC(=O)[C@H](CO)NC(=O)[C@H](CCC(N)=O)NC(=O)CNC(=O)[C@@H]1CCCN1C(=O)[C@H](CCCNC(=N)N)NC(=O)[C@@H]1CCCN1C(=O)[C@@H]1CCCN1C(=O)[C@H](CC(N)=O)NC(=O)[C@H](Cc1ccc(O)cc1)NC(=O)[C@@H]1CCCN1C(=O)[C@@H](NC(=O)[C@H](Cc1ccccc1)NC(=O)c1ccc2c(c1)C(=O)OC21c2ccc(O)cc2Oc2cc(O)ccc21)C(C)C)C(=O)N[C@@H](CCC(N)=O)C(=O)N[C@@H](Cc1c[nH]c2ccccc12)C(=O)N1CCC[C@H]1C(=O)N[C@@H](Cc1ccc(O)cc1)C(=O)N1CCC[C@H]1C(=O)N[C@@H](CC(C)C)C(=O)N1CCC[C@H]1C(=O)N[C@@H](CC(N)=O)C(=O)N1CCC[C@H]1C(=O)NCC(=O)N[C@@H](Cc1c[nH]cn1)C(N)=O` [B. pascuorum abaecin] (5FAM-FVPYNPPRPGQSKPFPSFPGHGPFNPKIQWPYPLPNPGH-NH2), for which the “maximum quenching effect (binding efficacy)” value on E. coli DnaK [1] (fluorescein-modified peptide 1.3 nmol l−1, DnaK–BHQ10 0.8–13 000 nmol l−1, buffer pH 7.4, fluorescence) is reported as 74%.
With “Pyrrhocoricin: proline-rich DnaK-binding AMP (VDKGSYLPRPTPPRPIYNRN; ends and bridges not checked; UniProt P37362 1-20, looked up)”, the DnaK binding orientation entry in experiment [2] is listed as “can bind to DnaK in both of the above orientations”.
In the case of “drosocin: proline-rich DnaK-binding AMP (GKPRPYSPRPTSHPRPIRV; ends and bridges not checked; UniProt P36193 22-40, looked up)”, the DnaK binding orientation result in experiment [2] is “a proline residue near the C-terminus of drosocin occupies the central pocket”.
“cecropin B: Hyalophora cecropia cecropin B (KWKVFKKIEKMGRNIRNGIVKAGPAIAVLGEAKAL; ends and bridges not checked; UniProt P01508 27-61, looked up)”: the “sensitivity of E. coli towards cecropin B following attacin” value with E. coli was “enhanced”.
For the molecule “metchnikowin 2: proline-rich AMP from Drosophila melanogaster (Cf-HRRQGPIFDTRPSPFNPNQPRPGPIY-NH2)”, in the experiment with E. coli DnaK [1], the Kd not determinable result is “No Kd values could be determined; also recorded: not possible to assign a Kd value”. In addition, the “DnaK interaction / binding-curve shape, in words” value with E. coli DnaK [1] (setting [4]) is given as “do not interact significantly with bacterial DnaK”.
The like results for “metchnikowin 1: proline-rich AMP from Drosophila melanogaster (Cf-HRHQGPIFDTRPSPFNPNQPRPGPIY-NH2)” were, in that order, “No Kd values could be determined; also recorded: not possible to assign a Kd value” and “do not interact significantly with bacterial DnaK”.
On to “metalnikowin I: proline-rich AMP from Palomena prasina (Cf-VDKPDYRPRPRPPNM-NH2)”, for which the Kd not determinable entry with E. coli DnaK [1] is “No Kd values could be determined; also recorded: not possible to assign a Kd value”. For the same molecule, the “DnaK interaction / binding-curve shape, in words” value with E. coli DnaK [1] (setting [4]) is on record as “do not interact significantly with bacterial DnaK”.
Take Cf-PQPRPPHPRL-OH [apidaecin 1b (#9–18)]: the “DnaK interaction / binding-curve shape, in words” value on E. coli DnaK [1] (setting [4]) is “small increase in control readouts with increasing probe concentration”. Besides, the “DnaK interaction of control peptide, in words” value at E. coli DnaK [3] is reported as “interacts minimally with DnaK”.
